The target of one experiment is T1, tyrosinase (Homo sapiens, UniProt P14679).
T1 construct: host or cells: human primary melanocytes
T1 sequence (P14679 19-529): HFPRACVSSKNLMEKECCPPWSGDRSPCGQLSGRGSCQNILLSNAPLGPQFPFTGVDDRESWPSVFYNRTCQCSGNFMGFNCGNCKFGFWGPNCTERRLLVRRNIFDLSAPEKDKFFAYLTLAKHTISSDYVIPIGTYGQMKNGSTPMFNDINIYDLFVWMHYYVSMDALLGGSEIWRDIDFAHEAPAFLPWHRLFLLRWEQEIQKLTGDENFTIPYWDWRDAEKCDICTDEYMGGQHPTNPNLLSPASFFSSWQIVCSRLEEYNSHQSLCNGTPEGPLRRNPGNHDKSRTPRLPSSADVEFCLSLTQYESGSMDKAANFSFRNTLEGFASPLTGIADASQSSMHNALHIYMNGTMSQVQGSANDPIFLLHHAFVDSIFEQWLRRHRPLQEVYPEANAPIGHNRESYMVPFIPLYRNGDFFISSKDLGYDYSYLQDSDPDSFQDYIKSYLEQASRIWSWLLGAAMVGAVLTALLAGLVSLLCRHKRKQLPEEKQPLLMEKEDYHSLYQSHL
Kind of experiment: Tyrosinase activity assay (in situ, melanocyte lysate). It is filed as cell-based. The note with it: Table 1B, 72 h. The protocol:
Human primary melanocytes (Cascade Biologics, now ThermoFisher Scientific) were grown in melanocytes growth medium (MGM) with human melanocyte growth supplement (both media components from ThermoFisher Scientific). Melanocytes were seeded at 1×10^4 cells/well in a 96 wells plate and cultures left undisturbed for 24 hours in a 5% CO2 humidifed incubator at 37° C. At 24 hrs post-seeding, cells were treated with GAP amino acids or additional test reagents above-described, alone or in combination, as described in examples below and left undisturbed for another 72 hours. Subsequently, cell viability was assessed and the cells were then lysed and progressed for determination of in situ tyrosinase activity. Cultures were rinsed twice with 1× phosphate-buffered saline and lysed with 40 uL of 0.5% TritonX 100 for 1 hr on an ice bed. In situ tyrosinase activity was visualized by addition of 60 μl of 50 mM potassium phosphate buffer (pH 6.8) containing 2 mM DOPA (3,4 dihydroxy phenylalanine) and 4 mM MBTH reagent (3-Methyl-2-Benzothiazolinone hydrazone hydrochloride) for 1 hour at 37° C. The reaction was stopped by the addition of 100 uL of ice-cold 10% tricholoracetic acid and then centrifuged at approximately 300 g for 10 minutes at 4° C. The soluble supernatant was separated from the pellet and the optical density read in a TECAN plate-reader (540 nm filter). The spectrophotometric optical density at 540 nm for untreated cells (media/vehicle) is considered as 100% tyrosinase activity. Tyrosinase activity is expressed after correction for cell numbers (activity/viability) and represented as % control.

The subject of experiment [1] is Human primary melanocytes. Kind of experiment: Melanin content assay. The experiment is classed as cell-based. The note with it: Melanocyte, 72 h. On the procedure:
Human primary melanocytes (Cascade Biologics, now ThermoFisher Scientific) were grown in melanocytes growth medium (MGM) with human melanocyte growth supplement (both media components from ThermoFisher Scientific). Melanocytes were seeded at 5×10^4 cells/well in 24 well-plates and incubated in a humidified incubator at 37° C. with 5% CO2 atmosphere. After 24 hours of incubation, cell cultures were treated with the GAP amino acids or additional test reagents above-described, alone or in combination, as described in examples below. The vehicle control consisted of cells treated with the vehicle (0.002 mM NaOH) alone. After treatment, cells were again incubated for 72 hours in a humidified incubator at 37° C. with 5% CO2 atmosphere. At the end of the 72 hour incubation, the culture medium was replaced with 120 uL/well of melanin content assay reagent (10% DMSO in 1M sodium hydroxide) and incubated for 1 hour at 60° C. in a shaker incubator. The supernatant was then transferred to a 384 well plate. The absorbance was measured by spectrophotometric analysis at 405 nm with a micro plate reader (GEnios Pro, Tecan).
The spectrophotometric optical density at 405 nm for untreated cells (no active) was considered as 100% melanin content. Relative melanin content for treated samples was calculated with normalization based on the untreated (media/vehide) control.

In patent publication US11077039B2, “Topical skin lightening additive and composition with amino acids and nicotinamide compounds” (Conopco, Inc., priority 2016, dated 2021) one finds inhibition data, which are given here for seven compounds.

The structures appear in SMILES notation. Like-named read-outs stand apart in the source and are kept apart here.

Turning to `CCCCCCc1ccc(O)cc1O` [HR, 4-hexylresorcinol], the inhibition at 10 µM at tyrosinase (HR 10 uM) turned out to be 67%; in experiment [1] (Table 1A, HR 10 uM, read-out: Melanin synthesis inhibition, Mean of % Inhibition), 35%; in experiment [1] (Table 1C, HR 10 μM, read-out: Melanin synthesis inhibition, Mean of % Inhibition), 26%; in experiment [1] (Table 1D, HR 10 uM, read-out: Melanin synthesis inhibition, Mean of % Inhibition), 32%; in experiment [1] (Table 1E, HR 10 uM, read-out: Melanin synthesis inhibition, Mean of % Inhibition) it was 28%; in experiment [1] (Table 2, HR 10 uM, read-out: Melanin synthesis inhibition, Mean of % Inhibition), 36%. For the same compound, the inhibition at 10 µM in experiment [1] (Table 2B, HR 10 uM, read-out: Melanin Synthesis inhibition, Mean of % Inhibition) came out at 32%.
With `NC(=O)c1ccncc1` [Isonicotinamide, isonicotinamide], the inhibition at 5000 µM in experiment [1] (Table 1D, Isonicotinamide 5 mM, alone or with GAP, read-out: Melanin synthesis inhibition, Mean of % Inhibition) was 4%. Moreover, the inhibition at 10000 µM in experiment [1] (Table 1D, Isonicotinamide 10 mM, alone or with GAP, read-out: Melanin synthesis inhibition, Mean of % Inhibition) worked out at 20%.
On to `CNC(=O)c1cccnc1` [N-methyl Nicotinamide, n-methyl-nicotinamide], for which the inhibition at 5000 µM in experiment [1] (Table 1C, N-methyl Nicotinamide 5 mM, alone or with GAP, read-out: Melanin synthesis inhibition, Mean of % Inhibition) amounted to 0%. The inhibition at 10000 µM in experiment [1] (Table 1C, N-methyl Nicotinamide 10 mM, alone or with GAP, read-out: Melanin synthesis inhibition, Mean of % Inhibition) turned out to be 7%.
On to `O=C(O)c1cccnc1` [Niacin, niacin], for which the inhibition at 5000 µM in experiment [1] (Table 2B, Niacin 5 mM, alone or with GAP, read-out: Melanin Synthesis inhibition, Mean of % Inhibition) was -7%. Besides, the inhibition at 10000 µM in experiment [1] (Table 2B, Niacin 10 mM, alone or with GAP, read-out: Melanin Synthesis inhibition, Mean of % Inhibition) came to 14%.
Take `NC(=O)c1ccc[n+]([C@@H]2O[C@H](CO)[C@@H](O)[C@H]2O)c1` [Nicotinamide Riboside, nicotinamide riboside]: the inhibition at 1 µM in experiment [1] (Table 1E, Nicotinamide Riboside 1 uM, alone or with GAP, read-out: Melanin synthesis inhibition, Mean of % Inhibition) came to 4%. Moreover, the inhibition at 2.5 µM in experiment [1] (Table 1E, Nicotinamide Riboside 2.5 uM, alone or with GAP, read-out: Melanin synthesis inhibition, Mean of % Inhibition) stood at 9%.
In the case of `NC(=O)c1cccnc1` [Nicotinamide, nicotinamide], the inhibition at 5000 µM on tyrosinase (Nicotinamide 5 mM, alone or with GAP) stood at 16%; in experiment [1] (Table 1A, Nicotinamide 5 mM, alone or with GAP, read-out: Melanin synthesis inhibition, Mean of % Inhibition), 9%. In addition, the inhibition at 10000 µM was 24% at tyrosinase (Nicotinamide 10 mM, alone or with GAP) and 10% in experiment [1] (Table 1A, Nicotinamide 10 mM, alone or with GAP, read-out: Melanin synthesis inhibition, Mean of % Inhibition).
`NC(=O)c1ccccn1` [Picolinamide, picolinamide]: in experiment [1] (Table 2, Picolinamide 5 mM, alone or with GAP, read-out: Melanin synthesis inhibition, Mean of % Inhibition), the inhibition at 5000 µM came to 6%. In addition, in experiment [1] (Table 2, Picolinamide 10 mM, alone or with GAP, read-out: Melanin synthesis inhibition, Mean of % Inhibition), the inhibition at 10000 µM came out at 32%.
